Activity calls are given as the source filed them. No cut-off for these calls is given here.

Type in all cases: functional, cell-based
The test system of test [1] is HeLa C3. In words: Induction of apoptosis in human HeLaC3 cells assessed as morphological changes at 500 nM after 24 to 72 hrs.
The subject of test [2] is HeLa. In words: Cytotoxicity against human HeLa cells after 72 hrs by MTT assay. In general terms: Tetrazolium assays rely on reduction of a dye to a coloured formazan, in cell work by metabolically active cells.
For test [3], the system named is HeLa C3. In words: Induction of apoptosis in human HeLaC3 cells assessed as reduction of yellow fluorescent protein/cyan fluorescent protein emission ratio below 3 at 25 uM after 72 hrs by FRET assay.
For test [4], the system named is HeLa C3. In words: Induction of apoptosis in human HeLaC3 cells assessed as reduction of yellow fluorescent protein/cyan fluorescent protein emission ratio below 3 at 50 uM after 72 hrs by FRET assay.
In test [5] the test system is HeLa C3. In words: Induction of apoptosis in human HeLaC3 cells assessed as reduction of yellow fluorescent protein/cyan fluorescent protein emission ratio below 3 at 10 uM after 72 hrs by FRET assay.
Test [6] has as its system HeLa C3. In words: Induction of apoptosis in human HeLaC3 cells assessed as reduction of yellow fluorescent protein/cyan fluorescent protein emission ratio below 3 at 100 uM after 72 hrs by FRET assay.
The test system of test [7] is HeLa C3. In words: Induction of apoptosis in human HeLaC3 cells assessed as reduction of yellow fluorescent protein/cyan fluorescent protein emission ratio below 3 at 25 uM after 24 hrs by FRET assay.
The subject of test [8] is HeLa C3. In words: Induction of apoptosis in human HeLaC3 cells assessed as morphological changes at 25 uM after 24 to 72 hrs.
The test system of test [9] is HeLa C3. In words: Induction of apoptosis in human HeLaC3 cells at < 100 uM after 72 hrs.
The test system of test [10] is HeLa C3. In words: Induction of apoptosis in human HeLaC3 cells at 50 to 100 uM after 72 hrs.
For test [11], the system named is HeLa. In words: Induction of apoptosis in human HeLa cells assessed as cleavage of PARP at 25 uM after 12 hrs by Western blotting. In general terms: Immunoblotting shows a protein as a band on a membrane.
The subject of test [12] is HeLa. In words: Induction of apoptosis in human HeLa cells assessed as cleavage of PARP at 25 uM after 36 hrs by Western blotting.
In test [13] the test system is HeLa C3. In words: Induction of apoptosis in human HeLaC3 cells assessed as reduction of yellow fluorescent protein/cyan fluorescent protein emission ratio below 3 at 25 uM after 48 hrs by FRET assay.

As for `CC(=O)O[C@H]1C(=O)[C@@]2(C)[C@H]([C@H](OC(=O)c3ccccc3)[C@]3(O)C[C@H](OC(=O)[C@H](O)[C@@H](NC(=O)c4ccccc4)c4ccccc4)C(C)=C1C3(C)C)[C@]1(OC(C)=O)CO[C@@H]1C[C@@H]2O`, the outcome with HeLa C3 [1] was Active.
Broadly, the IC50 is the concentration at which inhibition is half-maximal. Read a high IC50 as weaker potency. Take `COc1c(O)c(CC=C(C)C)cc2c1Oc1cc(O)c(CC=C(C)C)c(O)c1C(=O)O2` [PAUCINERVIN A]: the IC50 in the test with HeLa [2] stood at 95.6 µM. In addition, the result in the test with HeLa C3 [3], in the test with HeLa C3 [4] and with HeLa C3 [5] was inactive. Moreover, the result with HeLa C3 [6] was Active.
`CC1(C)C=Cc2c(c3ccoc3c3oc4c(O)cccc4c23)O1` [PAUCINERVIN C] showed an IC50 with HeLa [2] of 52.5 µM. In addition, the outcome in the test with HeLa C3 [3], in the test with HeLa C3 [4] and in the test on HeLa C3 [5] was inactive. Moreover, the result in the test with HeLa C3 [6] was Active.
Take `C=C(C)[C@@H]1C[C@]23C[C@H](CC=C(C)C)C(C)(C)[C@](CC=C(C)C)(C(=O)C(C(=O)c4ccc(O)c(O)c4)=C2O[C@H]1C=C(C)C)C3=O`: the outcome in the test on HeLa C3 [3], in the test on HeLa C3 [4], in the test on HeLa C3 [7], in the test on HeLa C3 [6] and in the test on HeLa C3 [8] was Active. Further, the result in the test with HeLa C3 [5] was inactive.
Turning to `CC(C)=CCc1c(O)cc(O)c2c(=O)c3cc4c(c(O)c3oc12)OC(C)(C)C=C4`, the result with HeLa C3 [3], in the test on HeLa C3 [4], in the test on HeLa C3 [6] and with HeLa C3 [8] was Active. Further, the result in the test with HeLa C3 [5] was inactive.
For the molecule `CC(C)=CCC/C(C)=C/CC/C(C)=C/CCC1(C)CCc2c(C)ccc(O)c2O1` (configuration not stated), the outcome in the test with HeLa C3 [3], in the test on HeLa C3 [5] and with HeLa C3 [6] was inactive. For the same molecule, the result with HeLa C3 [4] was Active.
As to `CC1=C(C)C(=O)C(CCC(C)(O)CCCC(C)CCCC(C)CCCC(C)C)=C(C)C1=O` (configuration not stated), the outcome in the test on HeLa C3 [3], in the test on HeLa C3 [4], in the test on HeLa C3 [5] and in the test on HeLa C3 [6] was inactive. In addition, the result with HeLa C3 [9] was Active.
For the molecule `CC(C)=CC[C@H]1C[C@@]23C[C@@H](CC=C(C)C)C(C)(C)[C@@](CC=C(C)C)(C(=O)C(C(=O)c4ccc(O)c(O)c4)=C2OC1(C)C)C3=O`, the outcome in the test on HeLa C3 [3], in the test with HeLa C3 [7], in the test on HeLa C3 [10] and in the test on HeLa C3 [8] was Active. Also, the outcome in the test with HeLa C3 [4], in the test with HeLa C3 [5] and in the test on HeLa C3 [6] was inactive.
With `CC(C)=CCc1cc2c(=O)c3c(O)c(CC=C(C)C)c(O)c(CC=C(C)C)c3oc2c(O)c1O`, the result with HeLa C3 [3] and in the test on HeLa C3 [5] was inactive. The result in the test with HeLa C3 [4] and in the test with HeLa C3 [6] was Active.
For `CC1(C)C=Cc2c(cc3oc4c(O)c(O)ccc4c(=O)c3c2O)O1`, the outcome with HeLa [11], with HeLa [12], in the test on HeLa C3 [3], in the test on HeLa C3 [5], in the test on HeLa C3 [10] and in the test on HeLa C3 [6] was Active. In addition, the result in the test with HeLa C3 [13] and in the test on HeLa C3 [8] was Active. Also, the result in the test with HeLa C3 [4] was inactive.
For `COC(=O)c1c(O)cc(O)cc1Oc1c(O)c(OC)cc(CC=C(C)C)c1OC` [PAUCINERVIN B], the outcome in the test with HeLa [11], in the test on HeLa [12], with HeLa C3 [3], with HeLa C3 [4], in the test on HeLa C3 [6] and in the test on HeLa C3 [13] was Active. The outcome in the test with HeLa C3 [8] was Active. The molecule also registered an IC50 with HeLa [2] of 9.5 µM. Further, in the test with HeLa C3 [5], the outcome was inactive.
With `CC(C)=CCC/C(C)=C/C[C@H]1C[C@]2(CC=C(C)C)C(=O)[C@@](CC=C(C)C)(C(=O)C(C(=O)c3ccc(O)c(O)c3)=C2O)[C@]1(C)CCC=C(C)C`, the outcome in the test on HeLa C3 [3], in the test with HeLa C3 [4], in the test with HeLa C3 [6] and in the test with HeLa C3 [8] was Active. Further, in the test with HeLa C3 [5], the outcome was inactive.
In the case of `CC1=CCCC(C)(C)C1CCC(C)CCCC(C)CCO` (configuration not stated), the result with HeLa C3 [3], with HeLa C3 [4], with HeLa C3 [5] and in the test on HeLa C3 [6] was inactive.
On to `C=C(C)[C@H]1C/C=C(\C)CC/C=C(\C)CC/C=C(\C)CC1`, for which the outcome in the test with HeLa C3 [3], in the test on HeLa C3 [4] and in the test on HeLa C3 [5] was inactive. In addition, in the test on HeLa C3 [6], the outcome was Active.
On to `CC(C)=CCC/C(C)=C/CC/C(C)=C/CCC1(C)CCc2c(C)cc(O)c(O)c2O1` (configuration not stated) [PAUCINERVIN D], for which, in the test with HeLa [2], half-maximal inhibition (IC50) required 29.5 µM. Also, the result in the test with HeLa C3 [3] and in the test on HeLa C3 [5] was inactive. Further, the outcome in the test with HeLa C3 [4] and with HeLa C3 [6] was Active.
With `CC(C)=CCc1c(O)cc2oc3ccc(O)cc3c(=O)c2c1O`, the result with HeLa C3 [3], in the test on HeLa C3 [4], in the test with HeLa C3 [5] and in the test with HeLa C3 [6] was inactive. Further, the result in the test on HeLa C3 [9] was Active.
Take `C=CC(C)(C)c1c(OC)c(CC=C(C)C)c(O)c2c(=O)c3ccc(O)c(O)c3oc12`: the outcome in the test with HeLa C3 [3] and in the test on HeLa C3 [5] was inactive. In addition, the outcome with HeLa C3 [4] and with HeLa C3 [6] was Active.

These data come from ChEMBL document CHEMBL1250438, “Identification and evaluation of apoptotic compounds from Garcinia paucinervis” (Bioorg Med Chem, 2010).
